Consider three molecules from US12522877B2, “Early detection of drug-resistant mycobacterium tuberculosis” (The Translational Genomics Research Institute, priority 2020, dated 2026).

The subject of assay [1] is M. tuberculosis isolates. On the set-up: species or system Mycobacterium tuberculosis.
Assay [2] has as its system M. tuberculosis isolates. It is filed as cell-based, Mycobacterium tuberculosis.
In assay [3] the test system is M. tuberculosis isolates. It is filed as cell-based, Mycobacterium tuberculosis. This is another data set of the same source.

Entries after “also recorded” stand apart in the source; their conditions may differ.

`NNC(=O)c1ccncc1` [Isoniazid]: in the assay on M. tuberculosis isolates [1], the “GenoType MTBDRplus” value is reported as “R” and the “Genotype MTBDRplus result” value was “low-level isoniazid resistance”.

Consider `CO[C@H]1/C=C/O[C@@]2(C)Oc3c(C)c(O)c4c(O)c(c(/C=N/N5CCN(C)CC5)c(O)c4c3C2=O)NC(=O)/C(C)=C\C=C\[C@H](C)[C@H](O)[C@@H](C)[C@@H](O)[C@@H](C)[C@H](OC(C)=O)[C@@H]1C` [Rifampicin], for which the “GenoType MTBDRplus” value with M. tuberculosis isolates [1] is reported as “R”.

Regarding `COc1nc2ccc(Br)cc2cc1[C@@H](c1ccccc1)[C@@](O)(CCN(C)C)c1cccc2ccccc12` [bedaquiline], the “Phenotypic susceptibility to bedaquiline” value in the assay with M. tuberculosis isolates [2] is “phenotypically susceptible; also recorded: phenotypically resistant”. Moreover, the “patients phenotypically and genotypically resistant to bedaquiline” value with M. tuberculosis isolates [3] turned out to be 47%.
